Laboratory results reported in ChEMBL document CHEMBL1955803, “Preclinical in vivo evaluation of efficacy, pharmacokinetics, and pharmacodynamics of a novel MEK1/2 kinase inhibitor RO5068760 in multiple tumor models” (Mol Cancer Ther, 2010).
Activity calls are given as the source filed them. The calls are words filed in the database; no cut-off is given here.

What was measured:
[1] = system: Mus musculus; test: Average drug concentration in human HT-29 cells expressing B-Raf V600E mutant xenografted nude mouse plasma at 50 mg/kg, po bid; assay type: ADME, organism-based; parameters: dose 50 mg/kg, route oral; settings: in vivo
[2] = target: T1, Dual specificity mitogen-activated protein kinase kinase; MEK1/2 (Homo sapiens) (UniProt P36507+Q02750); settings: HT-29, 2 to 10 uM
T1 sequence (P36507 whole entry, looked up): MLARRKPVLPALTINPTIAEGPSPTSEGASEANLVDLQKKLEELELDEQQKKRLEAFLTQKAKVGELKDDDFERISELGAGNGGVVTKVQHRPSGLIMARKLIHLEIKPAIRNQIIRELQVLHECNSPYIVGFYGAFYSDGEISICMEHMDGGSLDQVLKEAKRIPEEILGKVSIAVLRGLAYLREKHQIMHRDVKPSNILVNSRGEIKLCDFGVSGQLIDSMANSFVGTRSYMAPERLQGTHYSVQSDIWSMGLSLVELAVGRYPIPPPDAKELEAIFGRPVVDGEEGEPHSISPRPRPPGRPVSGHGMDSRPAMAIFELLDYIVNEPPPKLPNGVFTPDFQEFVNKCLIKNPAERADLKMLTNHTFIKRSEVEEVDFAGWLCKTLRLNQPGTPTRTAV
T1 sequence (Q02750 whole entry, looked up): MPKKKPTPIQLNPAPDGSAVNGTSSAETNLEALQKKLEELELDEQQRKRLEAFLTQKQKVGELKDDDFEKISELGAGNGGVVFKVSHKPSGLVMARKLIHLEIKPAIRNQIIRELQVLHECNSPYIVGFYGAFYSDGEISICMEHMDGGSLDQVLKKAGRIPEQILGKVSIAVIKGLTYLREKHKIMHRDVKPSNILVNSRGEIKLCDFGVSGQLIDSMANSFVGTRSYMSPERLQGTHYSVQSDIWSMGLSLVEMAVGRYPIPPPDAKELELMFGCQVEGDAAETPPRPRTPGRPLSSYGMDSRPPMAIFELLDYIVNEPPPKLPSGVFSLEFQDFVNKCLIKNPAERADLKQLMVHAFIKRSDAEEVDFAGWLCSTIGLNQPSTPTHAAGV
Description: Inhibition of MEK1/2 phosphorylation in human HT-29 cells at 2 to 10 uM by Western blot analysis

[3] = Cmax in human H460 cells expressing K-Ras Q61H mutant xenografted nude mouse at 50 mg/kg, po bid; assay type: ADME, organism-based; parameters: dose 50 mg/kg, route oral; settings: in vivo
[4] = system: Mus musculus; test: Inhibition of MEK-mediated ERK phosphorylation in tumor of human HT-29 cells expressing B-Raf V600E mutant xenografted nude mouse at 100 mg/kg, po after 4 hrs by Western blot analysis relative to control; assay type: functional; settings: HT-29, 4 h
[5] = system: Mus musculus; test: Inhibition of MEK-mediated ERK phosphorylation in tumor of human LOX cells expressing B-Raf V600E mutant xenografted nude mouse at 100 mg/kg, po after 1 hr by Western blot analysis relative to control; assay type: functional
[6] = system: Mus musculus; test: Average drug concentration in human H460 cells expressing K-Ras Q61H mutant xenografted nude mouse plasma at 50 mg/kg, po bid; assay type: ADME, organism-based; parameters: dose 50 mg/kg, route oral; settings: in vivo
[7] = Cmax in human HT-29 cells expressing B-Raf V600E mutant xenografted nude mouse at 25 mg/kg, po bid; assay type: ADME, organism-based; parameters: dose 25 mg/kg, route oral; settings: in vivo
[8] = Antitumor activity against human LOX cells expressing B-Raf V600E mutant xenografted in nude mouse assessed as tumor growth inhibition at 12.5 mg/kg, po bid; assay type: functional; settings: read-out: GI
[9] = Plasma concentration in human HT-29 cells expressing B-Raf V600E mutant xenografted nude mouse at 50 mg/kg, po after 12 hrs; assay type: ADME, organism-based; parameters: dose 50 mg/kg, route oral
[10] = system: HT-29; test: Antitumor activity against human HT-29 cells expressing B-Raf V600E mutant xenografted in nude mouse assessed as tumor growth inhibition at 50 mg/kg, po bid; assay type: functional; settings: read-out: GI
[11] = system: MIA PaCa-2; test: Antitumor activity against human MIAPaCa2 cells expressing K-Ras G12C mutant xenografted in nude mouse assessed as tumor growth inhibition at 100 mg/kg, po bid; assay type: functional; settings: read-out: GI
[12] = system: Mus musculus; test: Inhibition of MEK-mediated ERK phosphorylation in tumor of human HT-29 cells expressing B-Raf V600E mutant xenografted nude mouse at 100 mg/kg, po after 8 hrs by Western blot analysis relative to control; assay type: functional; settings: HT-29, 8 h
[13] = Plasma concentration in human HT-29 cells expressing B-Raf V600E mutant xenografted nude mouse at 100 mg/kg, po after 12 hrs; assay type: ADME, organism-based; parameters: dose 100 mg/kg, route oral
[14] = system: MIA PaCa-2; test: Growth inhibition of human MIAPaCa2 cells expressing K-Ras […] mutant by MTT assay; assay type: functional, cell-based
[15] = Cmax in human LOX cells expressing B-Raf V600E mutant xenografted nude mouse at 25 mg/kg, po bid; assay type: ADME, organism-based; parameters: dose 25 mg/kg, route oral; settings: in vivo
[16] = system: Mus musculus; test: Average drug concentration in human MIAPaCa2 cells expressing K-Ras G12C mutant xenografted nude mouse plasma at 100 mg/kg, po bid; assay type: ADME, organism-based, MIA PaCa-2; parameters: dose 100 mg/kg, route oral; settings: in vivo
[17] = system: Mus musculus; test: Average drug concentration in human MIAPaCa2 cells expressing K-Ras G12C mutant xenografted nude mouse plasma at 50 mg/kg, po bid; assay type: ADME, organism-based, MIA PaCa-2; parameters: dose 50 mg/kg, route oral; settings: in vivo
[18] = system: Mus musculus; test: Average drug concentration in human H460 cells expressing K-Ras Q61H mutant xenografted nude mouse plasma at 100 mg/kg, po bid; assay type: ADME, organism-based; parameters: dose 100 mg/kg, route oral; settings: in vivo
[19] = system: NCI-H460; test: Growth inhibition of human […] mutant by MTT assay; assay type: functional, cell-based
[20] = system: Mus musculus; test: Inhibition of MEK-mediated ERK phosphorylation in po dosed human HT-29 cells expressing B-Raf V600E mutant xenografted nude mouse tumor by Western blot analysis; assay type: functional, organism-based
[21] = system: Mus musculus; test: Toxicity in human H460 cells expressing K-Ras Q61H mutant xenografted nude mouse assessed as gross signs of adverse effect at 500 mg/kg, po administered weekly once for 3 weeks; assay type: organism-based; parameters: dose 500 mg/kg, route oral; settings: in vivo, 504 h
[22] = Plasma concentration in human HT-29 cells expressing B-Raf V600E mutant xenografted nude mouse at 100 mg/kg, po after 8 hrs; assay type: ADME, organism-based; parameters: dose 100 mg/kg, route oral
[23] = Drug level in human HT-29 cells expressing B-Raf V600E mutant xenografted nude mouse tumor at 50 mg/kg, po after 4 hrs; assay type: ADME, organism-based, Neoplasm; parameters: dose 50 mg/kg, route oral; settings: read-out: Drug uptake
[24] = system: MIA PaCa-2; test: Antitumor activity against human MIAPaCa2 cells expressing K-Ras G12C mutant xenografted in nude mouse assessed as tumor growth inhibition at 500 mg/kg, po administered weekly once; assay type: functional; settings: read-out: GI
[25] = system: Mus musculus; test: Inhibition of MEK-mediated ERK phosphorylation in tumor of human LOX cells expressing B-Raf V600E mutant xenografted nude mouse at 100 mg/kg, po after 12 hrs by Western blot analysis relative to control; assay type: functional
[26] = Growth inhibition of human LOX cells expressing B-Raf V600E mutant by MTT assay; assay type: functional, cell-based
[27] = system: Mus musculus; test: Toxicity in human HT-29 cells expressing B-Raf V600E mutant xenografted nude mouse assessed as gross signs of adverse effect at 25 to 100 mg/kg, po bid for 3 weeks; assay type: organism-based; parameters: dose 25-100 mg/kg, route oral; settings: in vivo, 504 h
[28] = Antitumor activity against human LOX cells expressing B-Raf V600E mutant xenografted in nude mouse assessed as tumor growth inhibition at 50 mg/kg, po bid; assay type: functional; settings: read-out: GI
[29] = system: HT-29; test: Reversible growth inhibition of human HT-29 cells expressing B-Raf V600E mutant measured up to 3 days by MTT assay; assay type: functional, cell-based
[30] = AUC (0 to 24 hrs) in human H460 cells expressing K-Ras Q61H mutant xenografted nude mouse at 200 mg/kg, po qd; assay type: ADME, organism-based; parameters: time < 24 hr, dose 200 mg/kg, route oral; settings: in vivo
[31] = Plasma concentration in human HT-29 cells expressing B-Raf V600E mutant xenografted nude mouse at 100 mg/kg, po after 4 hrs; assay type: ADME, organism-based; parameters: dose 100 mg/kg, route oral
[32] = target: T1, Dual specificity mitogen-activated protein kinase kinase; MEK1/2 (Homo sapiens); settings: LOX, 2 to 10 uM
Description: Inhibition of MEK1/2 in human LOX cells assessed as inhibition of ERK1/2 phosphorylation at 2 to 10 uM by Western blot analysis

[33] = target: Dual specificity mitogen-activated protein kinase kinase 1 (Homo sapiens, UniProt Q02750); test: Inhibition of MEK1 in human LOX cells assessed as inhibition of ERK phosphorylation by Western blot analysis; assay type: cell-based
Chain of Dual specificity mitogen-activated protein kinase kinase 1 (Q02750 whole entry): as the sequence (Q02750 whole entry, looked up) above

[34] = Plasma concentration in human LOX cells expressing B-Raf V600E mutant xenografted nude mouse at 100 mg/kg, po after 1 hr; assay type: ADME, organism-based; parameters: dose 100 mg/kg, route oral
[35] = AUC (0 to 12 hrs) in human H460 cells expressing K-Ras Q61H mutant xenografted nude mouse at 25 mg/kg, po bid; assay type: ADME, organism-based; parameters: time < 12 hr, dose 25 mg/kg, route oral; settings: in vivo
[36] = Plasma concentration in human LOX cells expressing B-Raf V600E mutant xenografted nude mouse at 100 mg/kg, po after 2 hrs; assay type: ADME, organism-based; parameters: dose 100 mg/kg, route oral
[37] = system: HT-29; test: Growth inhibition of human HT-29 cells expressing B-Raf V600E mutant by MTT assay; assay type: functional, cell-based
[38] = AUC (0 to 12 hrs) in human LOX cells expressing B-Raf V600E mutant xenografted nude mouse at 6.25 mg/kg, po bid; assay type: ADME, organism-based; parameters: time < 12 hr, dose 6.25 mg/kg, route oral; settings: in vivo

C[C@@H](c1ccccc1)[C@@H](C(=O)Nc1ccc(I)cc1F)N1C(=O)N[C@H](c2ccc(OC[C@H](O)CO)cc2)C1=O
Cave [1]: 609 ng/mL | inhibition [2]: Active | Cmax [3]: 8080 ng/mL | inhibition in vivo at 100 mg/kg [4]: 79% | inhibition in vivo at 100 mg/kg [5]: 77% | Cave [6]: 1942 ng/mL | Cmax [7]: 911 ng/mL | inhibition in vivo at 12.5 mg/kg [8]: 99% | concentration at 12 h [9]: 61 ng/mL | inhibition in vivo at 50 mg/kg [10]: 75% | inhibition in vivo at 100 mg/kg [11]: > 100% | inhibition in vivo at 100 mg/kg [12]: 0% | concentration at 12 h [13]: 195 ng/mL | IC50 [14]: 1250 nM | IC90 [14]: 5110 nM | Cmax [15]: 3790 ng/mL | Cave [16]: 2725 ng/mL | Cave [17]: 1567 ng/mL | Cave [18]: 5242 ng/mL | IC50 [19]: 300 nM | IC90 [19]: 3080 nM | EC50 [20]: 1001 ng/g | Activity [21]: Non-toxic | concentration at 8 h [22]: 741 ng/mL | concentration at 4 h [23]: 1490 ng/g | inhibition in vivo at 500 mg/kg [24]: 42% | inhibition in vivo at 100 mg/kg [25]: 12% | IC50 [26]: 18 nM | IC90 [26]: 720 nM | Activity [27]: Non-toxic | inhibition in vivo at 50 mg/kg [28]: > 100% | Activity [29]: Active | AUC at 24 h [30]: 122000 ng·h/mL | concentration at 4 h [31]: 6030 ng/mL | inhibition [32]: Active | IC50 [33]: 22 nM | concentration at 1 h [34]: 4840 ng/mL | AUC at 12 h [35]: 8800 ng·h/mL | concentration at 2 h [36]: 6300 ng/mL | IC50 [37]: 110 nM | IC90 [37]: 560 nM | growth inhibition (GI) ([37]; TDE = time-dependent effect): tde | AUC at 12 h [38]: 3970 ng·h/mL
